Measurements: PMC7259601 (PLoS ONE, 2020)
Where two headings read alike, the source gives them in different places.

Experiments:
rats = assay: Functional Observation Battery; format: in vivo; conditions: single dose of up to 100 mg/kg
Human recombinant MAO-A = target: T1, Human recombinant MAO-A (Homo sapiens, UniProt P21397); assay: MAO-A kynuramine fluorescent assay; format: biochemical; conditions: S1 Table A
T1 construct: purchased Sigma Aldrich M7316
Description: Human recombinant monoamine oxidase proteins MAO-A and MAO-B (Sigma Aldrich, M7316 and M7441) were used to monitor the MAO enzymatic activities in a fluorescent assay using kynuramine as a substrate. […] Enzymatic reaction was initiated by the addition of specific KM Kynuramine and incubated 1 hr at 37 °C. The oxidative deamination of the substrate was stopped by adding NaOH 2N (v/v). The conversion of kynuramine to 4-hydroxyquinoline by MAOs was monitored by fluorescence (λex = 320 nm, λem = 360 nm) using a microplate reader.

Mouse pharmacokinetics = format: in vivo, BALB/c mice; conditions: for AUC(0-inf): read-out: Plasma AUCinf; for AUC(0-t): read-out: Plasma AUClast
Description: Temperature and humidity were maintained at 22 ± 3 °C and 40-70 %, respectively and illumination was controlled to give a sequence of 12 hr light / dark cycle. The temperature and humidity were recorded by auto-controlled data logger system. All the animals were acclimatized to the experimental conditions for at least three days prior to dosing. All the animals were provided laboratory rodent diet (Vetcare India Pvt. Ltd, Bengaluru) except for overnight before treatment and 2 hr post dose. Reverse osmosis water treated with ultraviolet light was provided ad libitum. Blood samples were collected at 0, 0.05, 0.16, 0.5, 1, 2, 4, 8 & 24 hr for IV and for PO at 0, 0.25, 0.5, 1, 2, 4, 6, 8 and 24 hr post dosing. Each mouse was assigned to one of 3 subgroups and sampled at 3 timepoints. Animals were euthanized by using excess CO2 asphyxiation. The study was conducted at Sai Life Sciences Limited, Pune, India, in accordance with the guidelines of the Institutional Animal Ethics Committee (IAEC) and in accordance with the requirement of Committee for the Purpose of Control and Supervision of Experiments on Animals (CPCSEA), India. Prior approval was obtained before initiation of the study (IAEC Protocol No. IAEC/PRT/012-10; IAEC-CPCSEA).
Plasma was harvested from the blood samples harvested in K2EDTA containing tubes by centrifugation at 4000 rpm for 10 min at 4 ± 2 °C and stored below -70 °C until bioanalysis. Brain tissue was homogenized with phosphate buffer saline (pH 7.4). Total homogenate volume was thrice the tissue weight. All samples were processed for analysis by precipitation using Imipramine as internal standard and analyzed with partially validated LC-MS/MS method. Pharmacokinetic parameters were calculated using the non-compartmental analysis tool of WinNonlin® Enterprise software (Pharsight Corp., USA; version 5.2).
Compound levels from 3 samples per timepoint (for a given dose and route of administration), were used to calculated pharmacokinetic parameters using the non-compartmental analysis tool of WinNonlin® Enterprise software (Pharsight Corp., USA; version 5.2).

MAO-A = target: T2, MAO-A (Mus musculus, UniProt Q64133); assay: L-5-HTP-induced symptoms test; format: in vivo, CD1 mice; conditions: mouse; p.o. gavage, followed by 100 mg/kg L-5-HTP i.p.; read-out: ED50 potentiation of L-5-HTP-induced symptoms
T2 construct: from tissue; host or cells: mouse brain (homogenate ex vivo; living animal in the L-5-HTP test)
T2 sequence (Q64133 1-526): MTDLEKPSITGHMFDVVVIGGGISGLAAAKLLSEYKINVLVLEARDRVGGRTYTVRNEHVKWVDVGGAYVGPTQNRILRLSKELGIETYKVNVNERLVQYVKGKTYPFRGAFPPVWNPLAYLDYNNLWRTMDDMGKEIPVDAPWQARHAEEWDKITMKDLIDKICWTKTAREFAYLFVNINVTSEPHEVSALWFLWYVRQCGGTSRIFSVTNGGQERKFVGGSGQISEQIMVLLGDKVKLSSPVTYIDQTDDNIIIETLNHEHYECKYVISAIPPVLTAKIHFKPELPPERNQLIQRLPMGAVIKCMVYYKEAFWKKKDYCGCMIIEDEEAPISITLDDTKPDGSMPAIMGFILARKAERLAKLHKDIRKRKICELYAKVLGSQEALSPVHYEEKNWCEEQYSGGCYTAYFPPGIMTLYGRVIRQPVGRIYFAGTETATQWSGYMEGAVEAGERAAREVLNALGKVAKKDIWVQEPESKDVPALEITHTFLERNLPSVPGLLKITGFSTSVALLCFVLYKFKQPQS
Description: Male C57BL/6 mice (8 weeks of age, 25-30 g) procured from Harlan Interfauna Iberica were housed in the same condition that in MAO-B PEA section. This test was performed essentially as previously described. Test compound was administered p.o. at several dose levels to groups of mice (N = 10/dose) 60 min before an i.p. injection of L-5-HTP (100 mg/kg). This dose of 5-L-HTP produced no effects in control animals. […] Studies were performed in accordance with the institutional guidelines for the care and use of laboratory animals (European Communities Council Directive 86/609/EEC) established by the Ethical Committee for Animal Experimentation at the PRAAL-PCB.
This test was performed essentially as previously described [90](Koe et al., 1983). Test compound was administered p.o. at several dose levels 60 min before an i.p. injection of L-5-HTP. […] One score assigned to each symptom observed per animal, giving a maximal obtainable score of 30 per group of 10 mice.
Behavior was rated as outline above.

[1] = male, mouse, plasma, BALB/c mice, intravenous 2 mg/kg
[2] = male, mouse, plasma, BALB/c mice, oral 10 mg/kg

T1 sequence (P21397 whole entry): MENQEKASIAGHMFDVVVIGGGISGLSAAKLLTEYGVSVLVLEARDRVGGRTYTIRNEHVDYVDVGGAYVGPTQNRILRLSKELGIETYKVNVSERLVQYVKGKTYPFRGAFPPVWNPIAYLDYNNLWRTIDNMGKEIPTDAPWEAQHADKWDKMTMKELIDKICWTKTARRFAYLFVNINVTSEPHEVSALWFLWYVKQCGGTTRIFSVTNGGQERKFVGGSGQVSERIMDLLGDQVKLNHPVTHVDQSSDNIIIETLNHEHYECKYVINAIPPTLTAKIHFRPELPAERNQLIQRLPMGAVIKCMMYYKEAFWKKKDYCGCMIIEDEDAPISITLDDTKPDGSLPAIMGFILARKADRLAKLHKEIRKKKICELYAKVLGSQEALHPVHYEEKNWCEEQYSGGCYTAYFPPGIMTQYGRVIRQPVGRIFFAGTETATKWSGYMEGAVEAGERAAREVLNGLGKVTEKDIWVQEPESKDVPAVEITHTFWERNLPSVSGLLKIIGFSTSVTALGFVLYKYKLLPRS

Nc1nnc(CN[C@@H]2C[C@H]2c2ccc(OCc3ccccc3)cc2)o1 [ORY-2001, vafidemstat]
neurological alterations in the Functional Observation Battery (rats): did not lead to neurological alterations | IC50 (Human recombinant MAO-A): 5.47 ± 0.3 µM | Brain Cmax (Mouse pharmacokinetics; BALB/c mice, oral 10 mg/kg): 5804 ng/g | Fpo (Mouse pharmacokinetics; BALB/c mice, oral 10 mg/kg): 75% | AUC (Mouse pharmacokinetics; male, mouse, plasma, po, Balb/c mice, p.o. 10 mg/kg, read-out: area-under-the-curve (AUC) (converted)): 17200 ng·h/mL | clearance (Mouse pharmacokinetics; [1]): 6.8 mL/min/kg | half-life (Mouse pharmacokinetics; [1]): 2.05 h | AUC(0-inf) (Mouse pharmacokinetics; [1]): 4880 ng·h/mL | AUC(0-t) (Mouse pharmacokinetics; [1]): 4570 ng·h/mL | Vd (Mouse pharmacokinetics; male, mouse, plasma, BALB/c mice, intravenous 2 mg/kg, read-out: Vss): 1.1 L/kg | Cmax (Mouse pharmacokinetics; [2]): 4160 ng/mL | Tmax (Mouse pharmacokinetics; [2]): 0.25 h | half-life (Mouse pharmacokinetics; [2]): 2.22 h | AUC(0-inf) (Mouse pharmacokinetics; [2]): 17200 ng·h/mL | AUC(0-t) (Mouse pharmacokinetics; [2]): 17200 ng·h/mL | ED50 (MAO-A): 20.5 mg/kg
